Laboratory results reported in patent US9957268B2, “1H-pyrrolo[2,3,c]pyridin-7(6H)-ones and pyrazolo[3,4-c]pyridin-7(6H)-ones as inhibitors of BET proteins” (Incyte Corporation, priority 2014, dated 2018).

Key:
BRD4-BD2 = BRD4-BD2 (Homo sapiens (Human), UniProt O60885); experiment: BRD4 AlphaScreen assay (BRD4-BD2); assay type: binding; conditions: biotin-labeled tetra-acetylated histone H4 peptide
Description: (§1) BRD4-BD1 and BRD4-BD2 assays were conducted in white 384-well polystyrene plate in a final volume of 40 μL for BD1 and 60 μL for BD2. Inhibitors were first serially diluted in DMSO and added to the plate wells before the addition of other reaction components. The final concentration of DMSO in the assay was 1.25% (BD1) and 0.83% (BD2). The assays were carried out at room temperature in the assay buffer (50 mM Tris-HCl, pH 7.5, 0.01% Tween-20, 0.01% BSA, 5 mM DTT), containing 50 nM Biotin-labeled tetra-acetylated histone H4 peptide (H4Ac4) and BRD4-BD1 or BRD4-BD2 protein at concentration less than 1 nM. The incubation for 75 min. was followed by the addition of 20 μL of assay buffer supplemented with Streptavidin donor beads (PerkinElmer 6760002) and GSH Acceptor beads (PerkinElmer-AL109C) at final concentration 2-4 μg/mL under reduced light. After plate sealing, the plate was incubated in the dark at room temperature for 75 min. before reading on a PHERAstar FS plate reader (BMG Labtech). IC50 determination was performed by fitting the curve of percent control activity versus the log of the inhibitor concentration using the GraphPad Prism 5.0 software.

BRD4-BD1 = BRD4-BD1 (Homo sapiens (Human), UniProt O60885); experiment: BRD4 AlphaScreen assay (BRD4-BD1); assay type: binding; conditions: biotin-labeled tetra-acetylated histone H4 peptide
Description: as §1

| Compound | IC50 (BRD4-BD2) [nM] | IC50 (BRD4-BD1) [nM] |
| --- | --- | --- |
| COc1cc(-c2cn(C)c(=O)c3[nH]ccc23)c2c(c1)N(CC(=O)N1CCN(C)CC1)C(=O)C(C(C)C)O2 (stereo not drawn) [Example 14, 2-isopropyl-6-methoxy-8-(6-methyl-7-oxo-6,7-dihydro-1H-pyrrolo[2,3-c]pyridin-4-yl)-4-[2-(4-methylpiperazin-1-yl)-2-oxoethyl]-2H-1,4-benzoxazin-3(4H)-one] | ≤ 100 | 100 to 1000 |
| COc1cc(-c2cn(C)c(=O)c3[nH]ccc23)c2c(c1)N(Cc1ccncc1)C(=O)C(C(C)C)O2 (stereo not drawn) [Example 15, 2-isopropyl-6-methoxy-8-(6-methyl-7-oxo-6,7-dihydro-1H-pyrrolo[2,3-c]pyridin-4-yl)-4-(pyridin-4-ylmethyl)-2H-1,4-benzoxazin-3(4H)-one] | ≤ 100 | ≤ 100 |
| CC(C)C1Oc2c(cc(C#N)cc2-c2cn(C)c(=O)c3[nH]ccc23)NC1=O (stereo not drawn) [Example 17, 2-isopropyl-8-(6-methyl-7-oxo-6,7-dihydro-1H-pyrrolo[2,3-c]pyridin-4-yl)-3-oxo-3,4-dihydro-2H-1,4-benzoxazine-6-carbonitrile] | ≤ 100 | 100 to 1000 |
| CC(C)C1Oc2c(-c3cn(C)c(=O)c4[nH]ccc34)cc(C#N)cc2N(C)C1=O (stereo not drawn) [Example 18, 2-isopropyl-4-methyl-8-(6-methyl-7-oxo-6,7-dihydro-1H-pyrrolo[2,3-c]pyridin-4-yl)-3-oxo-3,4-dihydro-2H-1,4-benzoxazine-6-carbonitrile] | ≤ 100 | 100 to 1000 |
| CC(C)C1Oc2c(-c3cn(C)c(=O)c4[nH]ccc34)cc(C(N)=O)cc2N(C)C1=O (stereo not drawn) [Example 19, 2-isopropyl-4-methyl-8-(6-methyl-7-oxo-6,7-dihydro-1H-pyrrolo[2,3-c]pyridin-4-yl)-3-oxo-3,4-dihydro-2H-1,4-benzoxazine-6-carboxamide] | ≤ 100 | 100 to 1000 |
| CNC(=O)c1cc2c(c(-c3cn(C)c(=O)c4[nH]ccc34)c1)OC(C(C)C)C(=O)N2 (stereo not drawn) [Example 20, 2-isopropyl-N-methyl-8-(6-methyl-7-oxo-6,7-dihydro-1H-pyrrolo[2,3-c]pyridin-4-yl)-3-oxo-3,4-dihydro-2H-1,4-benzoxazine-6-carboxamide] | ≤ 100 | ≤ 100 |
| CC(C)C1Oc2c(cc([N+](=O)[O-])cc2-c2cn(C)c(=O)c3[nH]ccc23)NC1=O (stereo not drawn) [Example 21, 2-isopropyl-8-(6-methyl-7-oxo-6,7-dihydro-1H-pyrrolo[2,3-c]pyridin-4-yl)-6-nitro-2H-1,4-benzoxazin-3(4H)-one] | ≤ 100 | 100 to 1000 |
| COc1cc(-c2cn(C)c(=O)c3[nH]ccc23)c2c(c1)N(C)CC(C(C)C)O2 (stereo not drawn) [Example 22, 4-(2-isopropyl-6-methoxy-4-methyl-3,4-dihydro-2H-1,4-benzoxazin-8-yl)-6-methyl-1,6-dihydro-7H-pyrrolo[2,3-c]pyridin-7-one] | ≤ 100 | 100 to 1000 |
| COc1cc2c(c(-c3cn(C)c(=O)c4[nH]ccc34)c1)OC(C1CC1)C(=O)N2 (stereo not drawn) [Example 23, 2-cyclopropyl-6-methoxy-8-(6-methyl-7-oxo-6,7-dihydro-1H-pyrrolo[2,3-c]pyridin-4-yl)-2H-1,4-benzoxazin-3(4H)-one] | ≤ 100 | ≤ 100 |
| COc1cc2c(c(-c3cn(C)c(=O)c4[nH]ccc34)c1)OC(c1ccccc1)C(=O)N2 (stereo not drawn) [Example 24, 6-methoxy-8-(6-methyl-7-oxo-6,7-dihydro-1H-pyrrolo[2,3-c]pyridin-4-yl)-2-phenyl-2H-1,4-benzoxazin-3(4H)-one] | ≤ 100 | ≤ 100 |
| COc1cc2c(c(-c3cn(C)c(=O)c4[nH]ccc34)c1)OC(c1ccc(F)cc1Cl)C(=O)N2 (stereo not drawn) [Example 25, 2-(2-chloro-4-fluorophenyl)-6-methoxy-8-(6-methyl-7-oxo-6,7-dihydro-1H-pyrrolo[2,3-c]pyridin-4-yl)-2H-1,4-benzoxazin-3(4H)-one] | ≤ 100 | ≤ 100 |
| COc1cc2c(c(-c3cn(C)c(=O)c4[nH]ncc34)c1)OC(C(C)C)C(=O)N2 (stereo not drawn) [Example 26, 2-isopropyl-6-methoxy-8-(6-methyl-7-oxo-6,7-dihydro-1H-pyrazolo[3,4-c]pyridin-4-yl)-2H-1,4-benzoxazin-3(4H)-one] | ≤ 100 | ≤ 100 |
| COc1cc2c(c(-c3cn(C)c(=O)c4[nH]ccc34)c1)OC(C)(C)C(=O)N2 [Example 27, 6-methoxy-2,2-dimethyl-8-(6-methyl-7-oxo-6,7-dihydro-1H-pyrrolo[2,3-c]pyridin-4-yl)-2H-1,4-benzoxazin-3(4H)-one] | ≤ 100 | ≤ 100 |
| COc1cc2c(c(-c3cn(C)c(=O)c4[nH]ncc34)c1)OC(C)(C)C(=O)N2 [Example 29, 6-methoxy-2,2-dimethyl-8-(6-methyl-7-oxo-6,7-dihydro-1H-pyrazolo[3,4-c]pyridin-4-yl)-2H-1,4-benzoxazin-3(4H)-one] | ≤ 100 | ≤ 100 |
| Cn1cc(-c2cccc3c2OC2(CC2)C(=O)N3)c2cc[nH]c2c1=O [Example 30, 8-(6-methyl-7-oxo-6,7-dihydro-1H-pyrrolo[2,3-c]pyridin-4-yl)spiro[1,4-benzoxazine-2,1′-cyclopropan]-3(4H)-one] | ≤ 100 | ≤ 100 |
| Cn1cc(-c2cccc3c2OC(C)(C)C(=O)N3)c2cc[nH]c2c1=O [Example 31, 2,2-dimethyl-8-(6-methyl-7-oxo-6,7-dihydro-1H-pyrrolo[2,3-c]pyridin-4-yl)-2H-1,4-benzoxazin-3(4H)-one] | ≤ 100 | ≤ 100 |
| Cn1cc(-c2cccc3c2NC(C)(C)C(=O)N3)c2cc[nH]c2c1=O [Example 32, 3,3-dimethyl-5-(6-methyl-7-oxo-6,7-dihydro-1H-pyrrolo[2,3-c]pyridin-4-yl)-3,4-dihydroquinoxalin-2(1H)-one] | ≤ 100 | 100 to 1000 |
| CC(C)C1Oc2c(cc(C(=O)N3CCOCC3)cc2-c2cn(C)c(=O)c3[nH]ccc23)NC1=O (stereo not drawn) [Example 33, 2-isopropyl-8-(6-methyl-7-oxo-6,7-dihydro-1H-pyrrolo[2,3-c]pyridin-4-yl)-6-(morpholin-4-ylcarbonyl)-2H-1,4-benzoxazin-3(4H)-one] | ≤ 100 | ≤ 100 |
| CC(C)C1Oc2c(cc(C(=O)N(C)C)cc2-c2cn(C)c(=O)c3[nH]ccc23)NC1=O (stereo not drawn) [Example 34, 2-isopropyl-N,N-dimethyl-8-(6-methyl-7-oxo-6,7-dihydro-1H-pyrrolo[2,3-c]pyridin-4-yl)-3-oxo-3,4-dihydro-2H-1,4-benzoxazine-6-carboxamide] | ≤ 100 | ≤ 100 |
| CC(C)C1Oc2c(cc(CO)cc2-c2cn(C)c(=O)c3[nH]ccc23)NC1=O (stereo not drawn) [Example 36, 6-(hydroxymethyl)-2-isopropyl-8-(6-methyl-7-oxo-6,7-dihydro-1H-pyrrolo[2,3-c]pyridin-4-yl)-2H-1,4-benzoxazin-3(4H)-one] | ≤ 100 | ≤ 100 |
| COCc1cc2c(c(-c3cn(C)c(=O)c4[nH]ccc34)c1)OC(C(C)C)C(=O)N2 (stereo not drawn) [Example 37, 2-isopropyl-6-(methoxymethyl)-8-(6-methyl-7-oxo-6,7-dihydro-1H-pyrrolo[2,3-c]pyridin-4-yl)-2H-1,4-benzoxazin-3(4H)-one] | ≤ 100 | ≤ 100 |
| CC(C)C1Oc2c(cc(CN)cc2-c2cn(C)c(=O)c3[nH]ccc23)NC1=O (stereo not drawn) [Example 38, 6-(Aminomethyl)-2-isopropyl-8-(6-methyl-7-oxo-6,7-dihydro-1H-pyrrolo[2,3-c]pyridin-4-yl)-2H-1,4-benzoxazin-3(4H)-one] | ≤ 100 | 100 to 1000 |
| CCS(=O)(=O)NCc1cc2c(c(-c3cn(C)c(=O)c4[nH]ccc34)c1)OC(C(C)C)C(=O)N2 (stereo not drawn) [Example 39, N-{[2-isopropyl-8-(6-methyl-7-oxo-6,7-dihydro-1H-pyrrolo[2,3-c]pyridin-4-yl)-3-oxo-3,4-dihydro-2H-1,4-benzoxazin-6-yl]methyl}ethanesulfonamide] | ≤ 100 | ≤ 100 |
| CC(=O)NCc1cc2c(c(-c3cn(C)c(=O)c4[nH]ccc34)c1)OC(C(C)C)C(=O)N2 (stereo not drawn) [Example 40, N-{[2-isopropyl-8-(6-methyl-7-oxo-6,7-dihydro-1H-pyrrolo[2,3-c]pyridin-4-yl)-3-oxo-3,4-dihydro-2H-1,4-benzoxazin-6-yl]methyl}acetamide] | ≤ 100 | ≤ 100 |
| CC(C)C1Oc2c(cc(C(N)=O)cc2-c2cn(C)c(=O)c3[nH]ccc23)NC1=O (stereo not drawn) [Example 41, 2-isopropyl-8-(6-methyl-7-oxo-6,7-dihydro-1H-pyrrolo[2,3-c]pyridin-4-yl)-3-oxo-3,4-dihydro-2H-1,4-benzoxazine-6-carboxamide] | ≤ 100 | ≤ 100 |
| COc1cc2c(c(-c3cn(C)c(=O)c4[nH]ncc34)c1)OC(C1CCCC1)C(=O)N2 (stereo not drawn) [Example 42, 2-Cyclopentyl-6-methoxy-8-(6-methyl-7-oxo-6,7-dihydro-1H-pyrazolo[3,4-c]pyridin-4-yl)-2H-1,4-benzoxazin-3(4H)-one] | ≤ 100 | ≤ 100 |
| CC(C)C1Oc2c(cc(-c3ccco3)cc2-c2cn(C)c(=O)c3[nH]ccc23)NC1=O (stereo not drawn) [Example 43, 6-(2-furyl)-2-isopropyl-8-(6-methyl-7-oxo-6,7-dihydro-1H-pyrrolo[2,3-c]pyridin-4-yl)-2H-1,4-benzoxazin-3(4H)-one] | ≤ 100 | 100 to 1000 |
